Laboratory results taken from patent US6743794B2, “Methods and compounds for inhibiting MRP1” (Eli Lilly and Company, priority 1999, dated 2004).

Assays:
MRP1 = biological target: T1, MRP1 (Homo sapiens, UniProt P33527); experiment: Assay for reversal of MRP1-mediated doxorubicin resistance (HL60/Adr cells, alamarBlue viability); assay type: cell-based; conditions: oncolytic alone at the tested concentration, no test compound
T1 construct: HL60/Adr and HL60/Vinc are continuous cell lines, which were selected for doxorubicin and vincristine resistance respectively; endogenous in cells; host or cells: HL60/Adr (doxorubicin-selected HL60)
T1 sequence (P33527 whole entry): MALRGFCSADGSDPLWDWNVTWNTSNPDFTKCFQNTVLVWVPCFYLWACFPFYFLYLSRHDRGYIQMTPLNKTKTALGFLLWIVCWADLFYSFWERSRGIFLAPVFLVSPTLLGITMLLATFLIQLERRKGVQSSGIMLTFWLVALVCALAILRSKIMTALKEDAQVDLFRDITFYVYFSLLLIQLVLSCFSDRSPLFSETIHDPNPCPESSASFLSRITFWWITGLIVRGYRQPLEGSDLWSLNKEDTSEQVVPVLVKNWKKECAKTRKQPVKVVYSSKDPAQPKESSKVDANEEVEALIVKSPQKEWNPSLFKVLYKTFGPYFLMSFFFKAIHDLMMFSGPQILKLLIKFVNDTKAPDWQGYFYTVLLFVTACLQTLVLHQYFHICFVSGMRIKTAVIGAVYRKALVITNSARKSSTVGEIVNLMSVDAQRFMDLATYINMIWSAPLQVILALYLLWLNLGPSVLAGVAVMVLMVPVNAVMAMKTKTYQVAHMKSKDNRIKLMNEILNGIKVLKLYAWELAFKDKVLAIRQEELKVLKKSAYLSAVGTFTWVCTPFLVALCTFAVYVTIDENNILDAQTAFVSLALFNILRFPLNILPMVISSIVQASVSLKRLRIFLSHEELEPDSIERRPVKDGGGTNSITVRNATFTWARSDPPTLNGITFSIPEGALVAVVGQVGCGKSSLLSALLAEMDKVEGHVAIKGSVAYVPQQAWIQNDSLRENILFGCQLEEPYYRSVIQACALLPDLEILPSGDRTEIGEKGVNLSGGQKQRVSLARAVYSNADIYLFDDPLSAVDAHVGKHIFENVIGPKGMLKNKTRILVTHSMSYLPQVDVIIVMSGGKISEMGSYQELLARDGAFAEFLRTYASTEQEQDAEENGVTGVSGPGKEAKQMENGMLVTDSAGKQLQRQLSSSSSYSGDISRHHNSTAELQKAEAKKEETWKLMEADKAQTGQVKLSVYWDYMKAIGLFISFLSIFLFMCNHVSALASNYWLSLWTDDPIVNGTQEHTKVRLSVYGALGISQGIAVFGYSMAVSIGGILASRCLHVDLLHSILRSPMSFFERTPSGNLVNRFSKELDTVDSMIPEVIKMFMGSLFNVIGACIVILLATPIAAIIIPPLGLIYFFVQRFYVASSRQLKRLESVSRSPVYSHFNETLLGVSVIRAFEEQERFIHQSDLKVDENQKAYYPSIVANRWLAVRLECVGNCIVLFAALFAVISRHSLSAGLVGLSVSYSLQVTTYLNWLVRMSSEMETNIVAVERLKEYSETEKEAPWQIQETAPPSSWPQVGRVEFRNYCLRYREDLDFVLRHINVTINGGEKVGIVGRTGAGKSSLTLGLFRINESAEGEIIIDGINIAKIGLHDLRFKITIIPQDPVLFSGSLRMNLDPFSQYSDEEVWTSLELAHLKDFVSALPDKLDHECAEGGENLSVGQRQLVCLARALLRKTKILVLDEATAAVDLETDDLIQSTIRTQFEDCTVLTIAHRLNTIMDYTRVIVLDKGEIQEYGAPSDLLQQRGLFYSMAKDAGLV
Description: (§1) The biological activity of the compounds of the present invention was evaluated employing an initial screening assay which rapidly and accurately measured the activity of the tested compound in inhibiting MRP1 or MDR1. Assays useful for evaluating this reversing capability are well known in the art. See, e.g., T. McGrath, et al., Biochemical Pharmacology, 38:3611, 1989; D. Marquardt and M. S. Center, Cancer Research, 52:3157, 1992; D. Marquardt, et al., Cancer Research, 50:1426, 1990; and Cole, et. al., Cancer Research, 54: 5902-5910, 1994.
(§2) Assay for Reversal of MRP1-Mediated Doxorubicin Resistance and MDR1-Mediated Vincristine Resistance
(§3) HL60/Adr and HL60/Vinc are continuous cell lines, which were selected for doxorubicin and vincristine resistance respectively by culturing HL60, a human acute myeloblastic leukemia cell line, in increasing concentrations of doxorubicin or vincristine until a highly resistant variant was attained.
(§4) HL60/Adr and HL60/Vinc cells were grown in RPMI 1640 (Gibco) containing 10% fetal bovine serum (FBS) and 50 μg/ml GENTAMICIN™ (Sigma). Cells were harvested; washed twice with assay medium (same as culture media); counted; and diluted to 1×10^5 cells/ml in assay medium. One hundred microliters of cells were aliquoted into wells of a 96 well tissue culture plate. […]

MDR1 = biological target: T2, MDR1 (Homo sapiens, UniProt P08183); experiment: Assay for reversal of MDR1-mediated vincristine resistance (HL60/Vinc cells, alamarBlue viability); assay type: cell-based; conditions: oncolytic alone at the tested concentration, no test compound
T2 construct: HL60/Adr and HL60/Vinc are continuous cell lines, which were selected for doxorubicin and vincristine resistance respectively; endogenous in cells; host or cells: HL60/Vinc (vincristine-selected HL60)
T2 sequence (P08183 whole entry): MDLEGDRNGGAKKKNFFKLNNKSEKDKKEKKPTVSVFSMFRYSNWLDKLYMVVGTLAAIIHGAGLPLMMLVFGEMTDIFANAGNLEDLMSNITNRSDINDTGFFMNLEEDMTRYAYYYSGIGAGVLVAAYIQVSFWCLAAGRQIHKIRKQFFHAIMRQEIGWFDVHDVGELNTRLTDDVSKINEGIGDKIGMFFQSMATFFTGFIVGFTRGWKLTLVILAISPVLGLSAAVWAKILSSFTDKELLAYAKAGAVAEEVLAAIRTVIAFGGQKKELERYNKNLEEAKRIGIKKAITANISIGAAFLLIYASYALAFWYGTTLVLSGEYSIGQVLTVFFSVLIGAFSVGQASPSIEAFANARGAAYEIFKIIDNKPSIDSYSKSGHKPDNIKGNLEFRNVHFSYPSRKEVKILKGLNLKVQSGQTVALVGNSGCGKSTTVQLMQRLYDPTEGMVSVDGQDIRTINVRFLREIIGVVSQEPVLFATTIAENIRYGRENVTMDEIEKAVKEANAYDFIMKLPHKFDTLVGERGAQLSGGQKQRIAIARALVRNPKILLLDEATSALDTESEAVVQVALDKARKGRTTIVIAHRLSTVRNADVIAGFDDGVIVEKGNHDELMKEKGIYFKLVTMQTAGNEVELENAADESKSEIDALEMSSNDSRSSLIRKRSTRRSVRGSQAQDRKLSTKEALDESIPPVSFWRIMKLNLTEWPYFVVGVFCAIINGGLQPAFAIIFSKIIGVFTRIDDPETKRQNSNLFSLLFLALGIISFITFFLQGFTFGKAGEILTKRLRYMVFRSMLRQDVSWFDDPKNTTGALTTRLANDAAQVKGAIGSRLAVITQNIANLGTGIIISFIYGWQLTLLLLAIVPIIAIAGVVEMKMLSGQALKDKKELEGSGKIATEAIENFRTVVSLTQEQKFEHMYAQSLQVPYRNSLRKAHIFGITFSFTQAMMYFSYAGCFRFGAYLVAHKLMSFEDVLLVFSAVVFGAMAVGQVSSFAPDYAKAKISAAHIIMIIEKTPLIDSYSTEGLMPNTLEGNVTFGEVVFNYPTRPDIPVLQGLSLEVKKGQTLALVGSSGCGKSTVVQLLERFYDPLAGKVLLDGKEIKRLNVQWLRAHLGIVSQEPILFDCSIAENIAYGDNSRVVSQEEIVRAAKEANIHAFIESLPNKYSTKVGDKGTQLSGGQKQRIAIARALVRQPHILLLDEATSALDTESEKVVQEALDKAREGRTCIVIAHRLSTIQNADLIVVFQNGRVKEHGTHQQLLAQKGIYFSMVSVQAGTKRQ
Description: as §1, §2, §3, §4

## COc1cccc2c1C(=O)c1c(O)c3c(c(O)c1C2=O)C[C@@](O)(C(=O)CO)C[C@@H]3O[C@H]1C[C@H](N)[C@H](O)[C@H](C)O1 [doxorubicin]
MRP1
  inhibition of cell growth by the oncolytic alone: minimally inhibits
MDR1
  inhibition of cell growth by the oncolytic alone: minimally inhibits
